Results on two compounds are retold here after EP0584588A1, “Anti-ulcer composition containing imidazole derivative” (NIPPON CHEMIPHAR CO., LTD., priority 1992, dated 1994).

Series [1] can be described thus: Stability in acidic conditions (Britten-Robinson buffer, HPLC). The class given is physicochemical. The method, then: The stability of the compound in acidic conditions was determined at 37 °C in Britten-Robinson buffer which had been previously adjusted to pH 3.0, 5.0 or 7.0. The compound was dissolved in this buffer by supersonic waves, and the filtered solution was monitored by high performance liquid chromatography (HPLC) (Tosoh TSK-gel ODS-120T 4.6-250mm, CH₃CN/10 mM phosphate buffer (pH 6.0), 1 ml/min., room temperature (25 °C), detector ultraviolet (UV) 240-250 nm). Half-lives (T1/2) were determined from linear regression of the concentration vs. time (h).

In a further series the test system is HCl-ethanol erosion. The series can be described thus: HCl-ethanol erosion model (cytoprotective action on gastrointestinal tract). The class given is in vivo, SD rats. Conditions: Rattus norvegicus, 0.5 h; oral, 30 min. before HCl-ethanol mixture; total length of erosions; read-out: ED₅₀. The method, then:
To a mixture of 2-[(2-Isobutylamino)benzylthio]imidazole (1 g) obtained in (i) above, chloroform (40 ml), and methanol (10 ml) was portionwise added under chilling with ice, m-chloroperbenzoic acid (equivalent molar amount). After completion of the reaction was confirmed using TLC, the reaction mixture was made alkaline by addition of saturated aqueous sodium hydrogen carbonate and extracted with chloroform. The chloroform portion was then treated successively with three portions of 10 ml of 0.1 N aqueous NaOH and one portion of 20 ml of 0.1 N aqueous NaOH to transfer the desired product into the aqueous portions. The obtained four aqueous portions were separately made ammonia-alkaline by addition of 20% aqueous […]. The precipitated crystals were collected, washed sufficiently with ether, and dried to give 0.6 g (yield: 56.5%) of the desired product as a white crystalline powder. […]
SD rats were fested for 24 hours. […] Length (mm) of each erosion was measured, and the total length (mm) of the erosions observed in one rat was calculated. […]

Where two headings read alike, the source gives them in different places.

As to `CC(C)CNc1ccccc1C[S+]([O-])c1ncc[nH]1` (stereo not shown) [Imidazole derivative A, 2-[(2-Isobutylamino)benzylsulfinyl]imidazole], the half-life is 1.8 min in series [1] (britten-robinson buffer, pH 3); 55.8 min in series [1] (britten-robinson buffer, pH 5); 3780 min in series [1] (britten-robinson buffer, pH 7). For the same compound, the ED50 with HCl-ethanol erosion came to 3.6 mg/kg.
For `COc1ccc2[nH]c([S+]([O-])Cc3ncc(C)c(OC)c3C)nc2c1` (stereo not shown) [Omeprazole, reference compound], the half-life in series [1] (pH 3.0, 37°C, Britten-Robinson buffer, read-out: (T1/2) (converted)) was 3 min; in series [1] (pH 5.0, 37°C, Britten-Robinson buffer, read-out: (T1/2) (converted)), 20.4 min; in series [1] (pH 7.0, 37°C, Britten-Robinson buffer, read-out: (T1/2) (converted)), 1620 min.
